Results from patent publication US20230203098A1, “HUMAN TRANSFERRIN RECEPTOR BINDING PEPTIDE” (priority 2020, published 2023).
pKd: −log10 of the molar value. Read-outs that look alike come from different tables or passages of the source. Where a SMILES comes first, the peptide text is derived from it. Bridges are numbered along the chain shown (N, C = ends). [ ]: non-standard residue; d: D form. The star is where a group is joined. Phe(3,4-(OMe)2) = COc1ccc(C[C@H](N)C(=O)O)cc1OC; NH(CH2CH2O)8Me = COCCOCCOCCOCCOCCOCCOCCOCCN*; NMePhe(3-Cl) = CN[C@@H](Cc1cccc(Cl)c1)C(=O)O; NMeW = CN[C@@H](Cc1c[nH]c2ccccc12)C(=O)O; NMeY = CN[C@@H](Cc1ccc(O)cc1)C(=O)O; PEG4 = NCCOCCOCCOCCOCCC(=O)O; Abu = CC[C@H](N)C(=O)O

Target: transferrin receptor (hTfR) (Homo sapiens, UniProt P02786)
Sequence (P02786 whole entry): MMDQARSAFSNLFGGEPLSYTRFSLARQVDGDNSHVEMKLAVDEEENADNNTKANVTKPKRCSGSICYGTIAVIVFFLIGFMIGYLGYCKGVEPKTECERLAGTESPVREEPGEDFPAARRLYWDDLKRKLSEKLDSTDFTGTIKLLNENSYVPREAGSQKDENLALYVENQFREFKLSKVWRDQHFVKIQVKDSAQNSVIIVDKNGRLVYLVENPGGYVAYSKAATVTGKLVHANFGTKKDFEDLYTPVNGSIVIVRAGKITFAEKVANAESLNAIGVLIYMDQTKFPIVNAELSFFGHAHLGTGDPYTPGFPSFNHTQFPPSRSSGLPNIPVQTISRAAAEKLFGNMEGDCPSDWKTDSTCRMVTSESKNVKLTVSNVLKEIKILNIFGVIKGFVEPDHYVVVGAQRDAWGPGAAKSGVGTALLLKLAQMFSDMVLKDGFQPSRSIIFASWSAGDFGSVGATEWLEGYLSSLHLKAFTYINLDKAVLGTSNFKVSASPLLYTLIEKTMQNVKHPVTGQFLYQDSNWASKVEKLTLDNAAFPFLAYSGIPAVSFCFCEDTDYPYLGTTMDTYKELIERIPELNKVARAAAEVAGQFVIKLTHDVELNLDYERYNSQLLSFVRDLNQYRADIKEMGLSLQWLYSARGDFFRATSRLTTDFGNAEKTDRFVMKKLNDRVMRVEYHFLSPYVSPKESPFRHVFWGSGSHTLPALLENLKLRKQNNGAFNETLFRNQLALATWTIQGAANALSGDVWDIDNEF
Assay: Intermolecular interaction evaluation test between transferrin receptor (hTfR) and peptide by surface plasmon resonance (SPR)
Type: binding
Summary of the method: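 Receptor was Ni-captured and EDC/NHS-fixed on an NTA chip; running buffer HEPES pH 8.0 with NaCl, Tween 20, BSA and 1.0% DMSO.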

[1] = binding to hTfR by SPR, Table 2 peptides, read-out: KD value (SPR) class
[2] = surface plasmon resonance, hTfR, read-out: KD value for hTfR by SPR (class symbol)
[3] = surface plasmon resonance, peptide vs hTfR, read-out: KD value, hTfR binding by SPR (class symbol)
[4] = SPR, hTfR, class symbols A-D, read-out: KD (column without head, continuation of the table series)

SMILES: CC[C@H](C)[C@@H]1NC(=O)[C@H](Cc2ccc(OC)cc2)NC(=O)[C@H](Cc2ccc(O)cc2)NC(=O)[C@H](CC(N)=O)NC(=O)[C@H](Cc2c[nH]c3ccccc23)N(C)C(=O)[C@H](C(C)C)NC(=O)[C@H](Cc2cccc(Cl)c2)N(C)C(=O)[C@H](C(C)C)NC(=O)[C@H](C)N(C)C(=O)CSC[C@@H](C(N)=O)NC(=O)[C@H](Cc2ccc(O)cc2)N(C)C(=O)[C@H](Cc2ccccc2)NC(=O)[C@@H](CCCNC(=N)N)NC(=O)[C@H](CCCNC(=N)N)NC(=O)[C@H]([C@@H](C)CC)NC1=O [compound 215]
- pKd (SPR, peptides, linker-added peptides and FITC conjugates, Patent ID 203-230, read-out: KD): 7.00 to 9.00

SMILES: CC[C@H](C)[C@@H]1NC(=O)[C@H](Cc2ccc(OC)cc2)NC(=O)[C@H](Cc2ccc(O)cc2)NC(=O)[C@H](CC(N)=O)NC(=O)[C@H](Cc2c[nH]c3ccccc23)N(C)C(=O)[C@H](C(C)C)NC(=O)[C@H](Cc2cccc(Cl)c2)N(C)C(=O)[C@H](CCC(=O)O)NC(=O)[C@H](C)NC(=O)CSC[C@@H](C(=O)NCC(=O)NCC(=O)NCC(=O)NCC(=O)N[C@@H](CO)C(=O)N[C@@H](CO)C(=O)N[C@@H](CS)C(N)=O)NC(=O)[C@H](Cc2ccc(O)cc2)N(C)C(=O)[C@H](Cc2ccccc2)NC(=O)[C@H](CCC(=O)O)NC(=O)[C@H](CCCNC(=N)N)NC(=O)[C@H]([C@@H](C)CC)NC1=O [compound 231]
- pKd [1]: 7.00 to 9.00

SMILES: CC[C@H](C)[C@@H]1NC(=O)[C@H](Cc2ccc(OC)cc2)NC(=O)[C@H](Cc2ccc(O)cc2)NC(=O)[C@H](CC(N)=O)NC(=O)[C@H](Cc2c[nH]c3ccccc23)N(C)C(=O)[C@H](C(C)C)NC(=O)[C@H](Cc2cccc(Cl)c2)N(C)C(=O)[C@H](C(C)C)NC(=O)[C@H](C)NC(=O)CSC[C@@H](C(N)=O)NC(=O)[C@H](Cc2ccc(O)cc2)N(C)C(=O)[C@H](Cc2cccc(OC)c2)NC(=O)[C@@H](CCCNC(=N)N)NC(=O)[C@H](CCCNC(=N)N)NC(=O)[C@H]([C@@H](C)CC)NC1=O [compound 394]
- pKd [2]: 7.00 to 9.00

SMILES: CC[C@H](C)[C@@H]1NC(=O)[C@H](Cc2ccc(OC)cc2)NC(=O)[C@H](Cc2ccc(O)cc2)NC(=O)[C@H](CC(N)=O)NC(=O)[C@H](Cc2c[nH]c3ccccc23)N(C)C(=O)[C@H](C(C)C)NC(=O)[C@H](Cc2cccc(Cl)c2)N(C)C(=O)[C@H](CCCCNC(=N)N)NC(=O)[C@H](C)NC(=O)CSC[C@@H](C(N)=O)NC(=O)[C@H](Cc2ccc(O)cc2)N(C)C(=O)[C@H](Cc2ccccc2)NC(=O)[C@@H](CCCNC(=N)N)NC(=O)[C@H](CCCNC(=N)N)NC(=O)[C@H]([C@@H](C)CC)NC1=O [compound 242]
- pKd [1]: 7.00 to 9.00

SMILES: CC[C@H](C)[C@@H]1NC(=O)[C@H](Cc2ccc(O)cc2)NC(=O)[C@H](Cc2ccc(O)cc2)NC(=O)[C@H](CC(N)=O)NC(=O)[C@H](Cc2c[nH]c3ccccc23)N(C)C(=O)[C@H](C(C)C)NC(=O)[C@H](Cc2ccccc2)N(C)C(=O)[C@H](C(C)C)NC(=O)[C@H](C)NC(=O)CSC[C@@H](C(N)=O)NC(=O)[C@H](Cc2ccc(O)cc2)N(C)C(=O)[C@H](Cc2ccc(O)cc2)NC(=O)[C@H](CCCNC(=N)N)NC(=O)[C@H](CCCCN)NC(=O)[C@H]([C@@H](C)CC)NC1=O [compound 300]
- pKd [3]: 7.00 to 9.00

SMILES: CC[C@@H]1NC(=O)[C@H](C)NC(=O)CSC[C@@H](C(=O)NCCOCCOCCOCCOCCC(N)=O)NC(=O)[C@H](Cc2ccc(O)cc2)N(C)C(=O)[C@H](Cc2ccccc2)NC(=O)[C@@H](CCCNC(=N)N)NC(=O)[C@H](CCCNC(=N)N)NC(=O)[C@H]([C@@H](C)CC)NC(=O)[C@H]([C@@H](C)CC)NC(=O)[C@H](Cc2ccc(OC)cc2)NC(=O)[C@H](Cc2ccc(O)cc2)NC(=O)[C@H](CC(N)=O)NC(=O)[C@H](Cc2c[nH]c3ccccc23)N(C)C(=O)[C@H](C(C)C)NC(=O)[C@H](Cc2cccc(Cl)c2)N(C)C1=O [compound 243] ({CH2CO}-A[Abu][NMePhe(3-Cl)]V[NMeW]NYY(Me)IIR[dR]F[NMeY]C[PEG4]-NH2; thioether N-15)
- pKd [1]: 7.00 to 9.00

SMILES: CC[C@H](C)[C@@H]1NC(=O)[C@H](Cc2ccc(OC)nc2)NC(=O)[C@H](Cc2ccc(O)cc2)NC(=O)[C@H](CC(N)=O)NC(=O)[C@H](Cc2c[nH]c3ccccc23)N(C)C(=O)[C@H](C(C)C)NC(=O)[C@H](Cc2cccc(Cl)c2)N(C)C(=O)[C@H](C(C)C)NC(=O)[C@H](C)NC(=O)CSC[C@@H](C(N)=O)NC(=O)[C@H](Cc2ccc(O)cc2)N(C)C(=O)[C@H](Cc2ccccc2)NC(=O)[C@@H](CCCNC(=N)N)NC(=O)C(C)(C)NC(=O)[C@H]([C@@H](C)CC)NC1=O [compound 323]
- pKd [3]: 7.00 to 9.00

SMILES: CC[C@H](C)[C@@H]1NC(=O)[C@H](Cc2ccc(OC)cc2)NC(=O)[C@H](Cc2ccc(O)cc2)NC(=O)[C@H](CC(N)=O)NC(=O)[C@H](Cc2c[nH]c3ccccc23)N(C)C(=O)[C@H](C(C)C)NC(=O)[C@H](Cc2cccc(Cl)c2)N(C)C(=O)[C@H](C(C)C)NC(=O)[C@H](C)NC(=O)CSC[C@@H](C(N)=O)NC(=O)[C@H](Cc2ccc(O)cc2)N(C)C(=O)[C@H](Cc2ccccc2)NC(=O)[C@@H](C)NC(=O)[C@H](CCCCN)N(C)C(=O)[C@H]([C@@H](C)CC)NC1=O [compound 378]
- pKd [2]: 6.00 to 7.00

SMILES: CC[C@H](C)[C@@H]1NC(=O)[C@H](Cc2ccc(OC)cc2)NC(=O)[C@H](Cc2ccc(O)cc2)NC(=O)[C@H](CC(N)=O)NC(=O)[C@H](Cc2c[nH]c3ccccc23)N(C)C(=O)[C@H](C(C)C)NC(=O)[C@H](Cc2cccc(Cl)c2)N(C)C(=O)[C@H](C(C)C)NC(=O)[C@H](C)NC(=O)CSC[C@@H](C(N)=O)NC(=O)[C@H](Cc2ccc(O)cc2)N(C)C(=O)[C@H](Cc2ccccc2)NC(=O)[C@@H](CCCNC(=N)N)NC(=O)[C@H](CCCNC(=N)N)NC(=O)[C@H](CCC(=O)NCCOCCOCCOCCOCCOCCOCCOCCOC)NC1=O [compound 345] ({CH2CO}-AV[NMePhe(3-Cl)]V[NMeW]NYY(Me)IE(NH(CH2CH2O)8Me)R[dR]F[NMeY]C-NH2; thioether N-15)
- pKd [3]: 7.00 to 9.00

SMILES: CC[C@H](C)[C@@H]1NC(=O)[C@H](Cc2ccc(OC)cc2)NC(=O)[C@H](Cc2ccc(O)cc2)NC(=O)[C@H](CC(N)=O)NC(=O)[C@H](Cc2c[nH]c3ccccc23)N(C)C(=O)[C@H](C(C)C)NC(=O)[C@H](Cc2cccc(Cl)c2)N(C)C(=O)[C@H](C(C)C)NC(=O)[C@H](C)NC(=O)CSC[C@@H](C(=O)NCC(=O)NCC(=O)NCC(=O)NCC(=O)N[C@@H](CO)C(=O)N[C@@H](CO)C(=O)N[C@@H](CS)C(N)=O)NC(=O)[C@H](Cc2ccc(O)cc2)N(C)C(=O)[C@H](Cc2ccccc2)NC(=O)[C@@H](CCCCN)NC(=O)[C@H](CCCNC(=N)N)NC(=O)[C@H]([C@@H](C)CC)NC1=O [compound 407]
- pKd [2]: 7.00 to 9.00

SMILES: CC[C@H](C)[C@@H]1NC(=O)[C@H](Cc2ccc(OC)c(OC)c2)NC(=O)[C@H](Cc2ccc(O)cc2)NC(=O)[C@H](CC(N)=O)NC(=O)[C@H](Cc2c[nH]c3ccccc23)N(C)C(=O)[C@H](C(C)C)NC(=O)[C@H](Cc2cccc(Cl)c2)N(C)C(=O)[C@H](C(C)C)NC(=O)[C@H](C)NC(=O)CSC[C@@H](C(N)=O)NC(=O)[C@H](Cc2ccc(O)cc2)N(C)C(=O)[C@H](Cc2ccccc2)NC(=O)[C@@H](CCCNC(=N)N)NC(=O)[C@H](CCCNC(=N)N)NC(=O)[C@H]([C@@H](C)CC)NC1=O [compound 318] ({CH2CO}-AV[NMePhe(3-Cl)]V[NMeW]NY[Phe(3,4-(OMe)2)]IIR[dR]F[NMeY]C-NH2; thioether N-15)
- pKd [3]: 7.00 to 9.00

SMILES: CC[C@H](C)[C@@H]1NC(=O)[C@H](Cc2ccc(OC)cc2)NC(=O)[C@H](Cc2ccc(O)cc2)NC(=O)[C@H](CC(N)=O)NC(=O)[C@H](Cc2c[nH]c3ccccc23)N(C)C(=O)[C@H](C(C)C)NC(=O)[C@H](Cc2cccc(Cl)c2)N(C)C(=O)[C@H](C(C)C)NC(=O)[C@H](C)NC(=O)CSC[C@@H](C(N)=O)NC(=O)[C@H](Cc2ccc(O)cc2)N(C)C(=O)[C@H](Cc2cccnc2)NC(=O)[C@@H](CCCNC(=N)N)NC(=O)[C@H](CCCNC(=N)N)NC(=O)[C@H]([C@@H](C)CC)NC1=O [compound 460]
- pKd (SPR, hTfR, class symbols A-D, read-out: KD): 7.00 to 9.00

SMILES: CC[C@H](C)[C@@H]1NC(=O)[C@H](Cc2ccc(OCCN)cc2)NC(=O)[C@H](Cc2ccc(O)cc2)NC(=O)[C@H](CC(N)=O)NC(=O)[C@H](Cc2c[nH]c3ccccc23)NC(=O)[C@H](C(C)C)NC(=O)[C@H](Cc2ccccc2)N(C)C(=O)[C@H](C(C)C)NC(=O)[C@H](C)NC(=O)CSC[C@@H](C(N)=O)NC(=O)[C@H](Cc2ccc(O)cc2)N(C)C(=O)[C@H](Cc2ccccc2)NC(=O)[C@H](CCCNC(=N)N)NC(=O)[C@H](CCCNC(=N)N)NC(=O)[C@H]([C@@H](C)CC)NC1=O [compound 522]
- pKd [4]: 6.00 to 7.00

SMILES: CC[C@H](C)[C@@H]1NC(=O)[C@H](Cc2ccc(O)cc2)NC(=O)[C@H](Cc2ccc(O)cc2)NC(=O)[C@H](CC(N)=O)NC(=O)[C@H](Cc2c[nH]c3ccccc23)NC(=O)[C@H](C(C)C)NC(=O)[C@H](Cc2ccccc2)NC(=O)[C@H](CCCCN)NC(=O)[C@H](C)NC(=O)CSC[C@@H](C(N)=O)NC(=O)[C@H](Cc2ccc(O)cc2)N(C)C(=O)[C@H](Cc2ccc(O)cc2)NC(=O)[C@H](CCCNC(=N)N)NC(=O)[C@H](CCCNC(=N)N)NC(=O)[C@H]([C@@H](C)CC)NC1=O [compound 238]
- pKd [1]: 7.00 to 9.00

SMILES: CC[C@H](C)[C@@H]1NC(=O)[C@H](Cc2ccc(OC)cc2)NC(=O)[C@H](Cc2ccc(O)cc2)NC(=O)[C@H](CC(N)=O)NC(=O)[C@H](Cc2c[nH]c3ccccc23)NC(=O)[C@H](C(C)C)NC(=O)[C@H](Cc2cccc(Cl)c2)N(C)C(=O)[C@H](C(C)C)NC(=O)[C@H](C)NC(=O)CSC[C@@H](C(=O)NCCOCCOCCOCCOCCC(N)=O)NC(=O)[C@H](Cc2ccc(O)cc2)N(C)C(=O)[C@H](Cc2ccccc2)NC(=O)[C@H](CCCNC(=N)N)NC(=O)[C@H](CCCCN)NC(=O)[C@H]([C@@H](C)CC)NC1=O [compound 503]
- pKd [4]: > 9.00
